In data set [1] the test system is Staphylococcus capitis (American Type Culture Collection number 35661). In words: Minimal inhibitory concentration (MIC) against Staphylococcus capitis. The note with it: 2×YT broth, 37° C., 18 hours, lowest drug concentration that inhibited visible growth. Format: cell-based. How it is done: Minimal inhibitory concentrations (MIC) of inhibitors against E. coli strain DH5α (Genotype; F-φ80dlacZΔM 15Δ(lacZYA-argF)U 169 deoR recA1 endA1 hsdR17(rk^−, mk^+)phoA supE44λ^−thi-1 gyrA96 relA1) obtained from GibcoBRL Life Technologies, or Staphylococcus capitis (American Type Culture Collection number 35661) were determined as follows. Stock solutions of each test compound were prepared by dissolution of the compound in dimethylsulfoxide at 10 mM. For the determination of the minimal inhibitory concentration, two fold serial dilutions were prepared in 2×YT broth (typtone 16 g/1, yeast extract 10 g/1, sodium chloride 5 g/1 obtained from BIO 101 Inc, 1070 Joshua Way, Vista, Calif. 92083, USA) to yield 0.05 ml compound-containing medium per well. Inocula were prepared from cultures grown overnight in 2×YT broth at 37° C. Cell densities were adjusted to absorbance at 660 nm (A660)=0.1; the optical density-standardized preparations were diluted 1:1000 in 2×YT broth; and each well inoculated with 0.05 ml of the diluted bacteria. Microtiter plates were incubated at 37° C. for 18 hours in a humidified incubator. The MIC (μM) was recorded as the lowest drug concentration that inhibited visible growth.

SMILES strings stand for the structures. In brackets after ≈: the same amount, converted by molar mass.

`CCOC(=O)[C@@H](NC(=O)[C@H](CC(C)C)[C@H](C)C(=O)NO)C(C)(C)C` [Example 2] showed a melting point of 198 to 203 °C.

Take `CCCCCC[C@H](CC(=O)NO)C(=O)N[C@@H](Cc1ccccc1)C(=O)OC(C)C`: in data set [1], inhibition of growth (MIC) required 100 µM (≈ 40.7 µg/mL).

Values taken from patent US6545051B1, “Antibacterial hydroxamic acid derivatives” (British Biotech Pharmaceuticals, Ltd., priority 1999, dated 2003).
